Key:
[1] = deaths associated with the drug before its withdrawal in August 2001; cited from earlier work
[2] = human, in vivo

| Compound | rhabdomyolysis-related deaths [1] | Median CK [2] [u/l] |
| --- | --- | --- |
| COCc1c(C(C)C)nc(C(C)C)c(/C=C/[C@@H](O)C[C@@H](O)CC(=O)O)c1-c1ccc(F)cc1 [cerivastatin] | approx. 100 |  |
| CC(C)c1c(C(=O)Nc2ccccc2)c(-c2ccccc2)c(-c2ccc(F)cc2)n1CC[C@@H](O)C[C@@H](O)CC(=O)O [atorvastatin] |  | 84 |
| CCC(C)(C)C(=O)O[C@H]1C[C@@H](C)C=C2C=C[C@H](C)[C@H](CC[C@@H]3C[C@@H](O)CC(=O)O3)[C@H]21 [simvastatin] |  | 77 |
